Values joined by “and” are separate entries in the source; they are usually repeats but may differ in a detail not shown here. Identical values can stand only once. Like-named read-outs stand apart in the source and are kept apart here.
Target: KCa3.1 (Homo sapiens, UniProt O15554+P0DP23)
Assay: Whole-cell patch-clamp KCa3.1 activation (QPatch, HEK-293)
Format: cell-based
Set-up: host or cells: HEK-293
Text: Cells, Cell lines and Clones. […] The cloning of hKCa2.3 (19 CAG repeats) and hKCa3.1 has been previously described (Wulff et al., 2000). The hKCa2.3 clone was later stably expressed in COS-7 cells at Aurora Biosciences Corp., San Diego, Calif. Cell lines stably expressing other mammalian ion channels were gifts from several sources: hKCa1.1 in HEK-293 cells (Andrew Tinker, University College London); hKV2.1 in HEK293 cells (James Trimmer, UC Davis); KV11.1 (HERG) in HEK-293 cells (Craig January, University of Wisconsin, Madison); hNaV1.4 in HEK-293 cells (Frank Lehmann-Horn, University of Ulm, Germany), hNaV1.5 in HEK-293 cells (Christopher Lossin, University of California Davis), and hCaV1.2 in HEK-293 cells (Franz Hofmann, Munich, Germany).
Electrophysiology. Experiments were conducted either manually with an EPC-10 amplifier (HEKA, Lambrecht/Pfalz, Germany) or on a QPatch-16 automated electrophysiology platform (Sophion Biosciences, Denmark). […] Patch pipettes were pulled from soda lime glass (micro-hematocrit tubes, Kimble Chase, Rochester, N.Y.) and had resistances of 2-3 MΩ. […] Free Ca^2+ concentrations were calculated with MaxChelator assuming a temperature of 25° C., a pH of 7.2 and an ionic strength of 160 mM. […] Na^+ aspartate Ringer was used as an external solution (in mM): 160 Na^+ aspartate, 4.5 KCl, 2 CaCl2, 1 MgCl2, 5 HEPES, pH 7.4, 290-310 mOsm. […] Reduction of both peak and tail current by the drug was determined. NaV1.7 currents were recorded with 30 ms pulses from −90 mV to −10 mV every 10 sec with a CsF-based pipette solution and normal Ringer as an external solution. CaV1.2 currents were elicited by 100-ms depolarizing pulses from −80 to 20 mV every 10 sec with a CsCl-based pipette solution and an external solution containing 30 mM BaCl2. Blockade of both Na^+ and Ca^2+ currents was determined as reduction of the current minimum.
For automated electrophysiology experiments cells were grown to ˜70% confluency, rinsed in sterile PBS containing 0.02% EDTA, and lifted with 2 mL of TrypLE™ Express (Gibco, Grand Island, N.Y.) for ˜2 min. When cells were rounded but not detached, they were dislodged by gentle tapping, suspended in DMEM, centrifuged and resuspended in 1 ml of external solution, placed into the Qfuge tube and resuspended in 150-200 μL extracellular solution after one additional spin on the QPatch. Whole-cell patch-clamp experiments were then carried out using disposable 16-channel planar patch chip plates (QPlates; patch hole diameter approximately 1 μm, resistance 2.00±0.02 MΩ). […] In order to avoid rejection of cells with large KCa3.1 currents the minimum seal resistance for whole-cell requirement was lowered to 0.001 GΩ. […] Following establishment of the whole-cell configuration, cells were held at −80 mV and KCa3.1, KCa2.1 or KCa2.2 currents elicited by a voltage protocol that held at −80 mV for 20 ms, stepped to −120 mV for 20 ms, ramped from −120 to 40 mV in 200 ms and then stepped back to −120 mV for 20 ms. This pulse protocol was applied every 10 s. […] NaV1.2 currents from N1E-115 cells, NaV1.4 and NaV1.5 currents from stably transfected HEK cells were recorded with 20 ms pulses from −90 mV to 0 mV every 10 sec with a KF-based internal solution and normal Ringer as an external solution. Current slopes (in ampere per sec) were measured using the SophionQPatch software and exported to Microsoft Excel and Origin 7.0 (OriginLab Corp. MA) for analysis. […] Data fitting to the Hill equation to obtain EC50 and IC50 values was performed with Origin 7.0. Data are expressed as mean±SD.

Cc1cc2nc(N)oc2c2ccccc12 [SKA-121, 5-Methylnaphtho[2,1-d]oxazol-2-amine]
maximal KCa3.1 current increase (250 nM free Ca2+): roughly 30 fold | EC50 (250 nM free Ca2+, read-out: EC50 for KCa3.1 activation): 109 nM and 111 nM and ~110 nM | EC50 (Appendix A, read-out: KCa3.1 EC50 (converted)): 200 nM | Hill coefficient nH, KCa3.1 concentration-response curve (FIG. 4 legend): 3.0 | selectivity for KCa3.1 over the three KCa2 channels (KCa2.1, KCa2.2 and KCa2.3): 40-80 fold | EC50 (Table 1, 250 nM free Ca2+, read-out: KCa3.1 EC50 (converted)): 109 nM | selectivity for KCa3.1 over KCa2.3 (ratio of EC50 values): ~40 fold
